According to PMC12650660, “Novel Synthetic Strategies Towards Analogues of Cadaside and Malacidin Antibiotic Peptides” (Biomolecules, 2025):
In brackets after ≈: the same amount, converted by molar mass. Like-named read-outs stand apart in the source and are kept apart here. Numbered stars: 1 amine (or outer) side, 2 acyl side, 3 side chain; on linkers, the order of the positions; unused ones are H or OH. Bridge positions count the residues as written; N and C are the ends. Square brackets hold non-standard residues; d marks the D form. Peptide text beside a SMILES is read from it. * marks the point of attachment. β2hAla(R) = C[C@H](CN[*:1])C(=O)[*:2]; Decanoyl = CCCCCCCCCC(=O)*; Sar = CNCC(=O)O

Legend:
[1] = head-to-tail type lactamisation of side-chain-protected branched depsipeptide (Gly10 N-terminus of ester branch + C-terminal Pro9), HATU/DIPEA (pH ~10), microwave; details: the molecule shown is the open-chain precursor; 28-membered ring; DCM; 6.0 mM; 70.0 °C; 1.0 h
[2] = system: B. subtilis 168; assay type: cell-based
Experimental: MICs were measured in triplicate by microbroth dilution. An overnight culture of B. subtilis 168 (DSMZ German Collection of Microorganisms and Cell Cultures GmbH) was inoculated at 5 × 10^5 CFU/mL in cation-adjusted Mueller–Hinton broth (MHB II) with or without 15 mM or 100 mM CaCl2. Serial two-fold peptide dilutions (128 - 1 µg/mL for analogues and 16 - 0.25 µg/mL for daptomycin) were incubated in polypropylene U-bottom 96-well plates (200 µL final volume) at 37 °C for 24 h. MIC was the lowest concentration at which no growth was observed. Optical density measurements at 620 nm were performed using a Thermo Scientific Multiskan FC (Thermo Fisher Scientific Inc., Paisley, UK). MIC was determined from the lowest concentration at which no tubidity was observed, using an untreated positive growth control, and a broth-only sterility control as references.

[3] = TLC precursor-binding assay with C55-P; design: key to C55-P (TLC binding): “+” indicates binding confirmed; “-” indicates no binding; “~” indicates potential binding with absence of precursor band; details: for C55-P spot on TLC after incubation with peptide (in words): absence of C55-P spot = potential indicator of binding, KMnO4 staining in Figure S5; for C55-P (TLC binding): peptide 0.5, 1, 2 equiv. with C55-P in Tris·HCl pH 7.5, 50 mM CaCl2, 1 h, silica TLC
Experimental: (§1) Lipid II and undecaprenyl phosphate (C55-P) (1 equiv., 30 µL) in Tris•HCl buffer (0.2% Triton X-100, 26 mM MgCl2, and 50 mM CaCl2 at pH 7.5) were incubated with the peptides (0.5, 1, 2 equiv.) or nisin (0.1, 0.5, 1 equiv.) in 30 µL water for 1 h. The reaction was then extracted with ^tBuOH/6 M PyOAc (2/1 v/v, 100 µL) and the organic phase was dried using an Eppendorf vacuum centrifuge 5301 (Fisher Scientific, Loughborough, UK) under reduced pressure. The solid was redissolved in CHCl3/MeOH (1/1 v/v, 30–60 µL) for spotting onto the TLC plates. In addition to the peptide–lipid mixtures, a control of each peptide/nisin with 30 µL buffer, and a control of each lipid with 30 µL HPLC-grade water were also incubated and subjected to the same workup. Silica TLC plates were run in a CHCl3/MeOH/H2O/NH3 (88/48/10/1 v/v) solvent system and stained using iodine vapour, phosphomolybdic acid (PMA), or KMnO4 stain, as well as visualisation at 254 nm and 365 nm.

[4] = TLC precursor-binding assay with lipid II; design: key to Lipid II (TLC binding): “+” indicates binding confirmed; “-” indicates no binding; “~” indicates potential binding with absence of precursor band; details: peptide 0.5, 1, 2 equiv. (nisin 0.1, 0.5, 1 equiv.) with lipid II in Tris·HCl pH 7.5, 50 mM CaCl2, 1 h; silica TLC
Experimental: as §1

Row | SMILES | MIC + Ca^2+ ([2]; 168, 24 h) [µg/mL] | MIC − Ca^2+ ([2]; 168, 24 h) [µg/mL] | C55-P (TLC binding) [3] | Lipid II (TLC binding) [4] | ring closure, overall yield [1] [%] | further results
1 | CCCCCCCCCC(=O)NC[C@@H](C)C(=O)NCC(=O)N[C@H](CCC(=O)OC(C)(C)C)C(=O)N[C@@H](Cc1ccc(OC(C)(C)C)cc1)C(=O)N[C@H](C(=O)N[C@@H](C(=O)N[C@@H](CC(=O)OC(C)(C)C)C(=O)N[C@@H](CC(=O)OC(C)(C)C)C(=O)N1CCC[C@H]1C(=O)O)[C@H](C)CC)[C@@H](C)OC(=O)CN(C)C(=O)[C@H](CCC(=O)OC(C)(C)C)NC(=O)[C@@H](CC(=O)OC(C)(C)C)NC(=O)CN |  |  |  |  | 0.3 | 
2 | CCCCCCCCCC(=O)NC[C@@H](C)C(=O)NCC(=O)N[C@H](CCC(=O)OC(C)(C)C)C(=O)N[C@@H](Cc1ccc(OC(C)(C)C)cc1)C(=O)N[C@H](C(=O)N[C@@H](C(=O)N[C@@H](CC(=O)OC(C)(C)C)C(=O)N[C@@H](CC(=O)OC(C)(C)C)C(=O)N1CCC[C@H]1C(=O)O)[C@H](C)CC)[C@@H](C)OC(=O)CN(C)C(=O)[C@H](CC(=O)OC(C)(C)C)NC(=O)[C@@H](CCC(=O)OC(C)(C)C)NC(=O)CN |  |  |  |  | 0.4 | 
3 | CCCCCCCCCC(=O)NC[C@@H](C)C(=O)NCC(=O)N[C@H](CCC(=O)OC(C)(C)C)C(=O)N[C@@H](Cc1ccc(OC(C)(C)C)cc1)C(=O)N[C@H](C(=O)N[C@@H](C(=O)N[C@@H](CC(=O)OC(C)(C)C)C(=O)N[C@@H](CC(=O)OC(C)(C)C)C(=O)N1CCC[C@H]1C(=O)O)[C@H](C)CC)[C@@H](C)OC(=O)CN(C)C(=O)[C@H](CCC(=O)OC(C)(C)C)NC(=O)[C@H](CCC(=O)OC(C)(C)C)NC(=O)CN |  |  |  |  | 1 | 
4 | CCCCCCCCCC(=O)NC[C@@H](C)C(=O)NCC(=O)N[C@H](CCC(=O)OC(C)(C)C)C(=O)N[C@@H](Cc1ccc(OC(C)(C)C)cc1)C(=O)N[C@H](C(=O)N[C@@H](C(=O)N[C@@H](CC(=O)OC(C)(C)C)C(=O)N[C@@H](CC(=O)OC(C)(C)C)C(=O)N1CCC[C@H]1C(=O)O)[C@H](C)CC)[C@@H](C)OC(=O)CN(C)C(=O)[C@H](CCC(=O)OC(C)(C)C)NC(=O)[C@@H](CCC(=O)OC(C)(C)C)NC(=O)CN |  |  |  |  | 0.5 | 
5 | CCCCCCCCCC(=O)NC[C@@H](C)C(=O)NCC(=O)N[C@H](CCC(=O)OC(C)(C)C)C(=O)N[C@@H](Cc1ccc(OC(C)(C)C)cc1)C(=O)N[C@H](C(=O)N[C@@H](C(=O)N[C@@H](CC(=O)OC(C)(C)C)C(=O)N[C@@H](CC(=O)OC(C)(C)C)C(=O)N1CCC[C@H]1C(=O)O)[C@H](C)CC)[C@@H](C)OC(=O)CN(C)C(=O)[C@H](CC(=O)OC(C)(C)C)NC(=O)[C@@H](CC(=O)OC(C)(C)C)NC(=O)CN |  |  |  |  | 0.3 | 
6 | CCCCCCCCCC(=O)NC[C@@H](C)C(=O)NCC(=O)N[C@H](CCC(=O)OC(C)(C)C)C(=O)N[C@@H](Cc1ccc(OC(C)(C)C)cc1)C(=O)N[C@H](C(=O)N[C@@H](C(=O)N[C@@H](CC(=O)OC(C)(C)C)C(=O)N[C@@H](CC(=O)OC(C)(C)C)C(=O)N1CCC[C@H]1C(=O)O)[C@H](C)CC)[C@@H](C)OC(=O)CN(C)C(=O)[C@H](CC(=O)OC(C)(C)C)NC(=O)[C@H](CCC(=O)OC(C)(C)C)NC(=O)CN |  |  |  |  | 0.2 | 
7 | CCCCCCCCCC(=O)NC[C@@H](C)C(=O)NCC(=O)N[C@H](CCC(=O)OC(C)(C)C)C(=O)N[C@@H](Cc1ccc(OC(C)(C)C)cc1)C(=O)N[C@H](C(=O)N[C@@H](C(=O)N[C@@H](CC(=O)OC(C)(C)C)C(=O)N[C@@H](CC(=O)OC(C)(C)C)C(=O)N1CCC[C@H]1C(=O)O)[C@H](C)CC)[C@@H](C)OC(=O)CN(C)C(=O)[C@H](CCC(=O)OC(C)(C)C)NC(=O)[C@H](CC(=O)OC(C)(C)C)NC(=O)CN |  |  |  |  | 0.2 | 

The next lines start with results.

Row | MIC + Ca^2+ ([2]; 168, 24 h) [µg/mL] | MIC − Ca^2+ ([2]; 168, 24 h) [µg/mL] | C55-P (TLC binding) [3] | Lipid II (TLC binding) [4] | SMILES | ring closure, overall yield [1] [%] | further results
8 | 128 | 128 (≈ 81.3 µM) | - | - | CCCCCCCCCC(=O)NC[C@@H](C)C(=O)NCC(=O)N[C@H](CCC(=O)O)C(=O)N[C@@H](Cc1ccc(O)cc1)C(=O)N[C@@H]1C(=O)N[C@H]([C@H](C)CC)C(=O)N[C@@H](CC(=O)O)C(=O)N[C@@H](CC(=O)O)C(=O)N2CCC[C@H]2C(=O)NCC(=O)N[C@H](CCC(=O)O)C(=O)NCC(=O)N[C@@H](CCC(=O)O)C(=O)N(C)CC(=O)O[C@@H]1C [Peptide C9] (Decanoyl-[β2hAla(R)]G[dE]YT[dI]DDPG[dE]GE[Sar]; ester 5-C) |  | C55-P spot on TLC after incubation with peptide (in words) [3]: a lack of binding
9 | 128 | 128 (≈ 85.2 µM) | - | - | CCCCCCCCCC(=O)NC[C@@H](C)C(=O)NCC(=O)N[C@H](CCC(=O)O)C(=O)N[C@@H](Cc1ccc(O)cc1)C(=O)N[C@@H]1C(=O)N[C@H]([C@H](C)CC)C(=O)N[C@@H](CC(=O)O)C(=O)N[C@@H](CC(=O)O)C(=O)N2CCC[C@H]2C(=O)NCC(=O)N[C@H](CC(=O)O)C(=O)N[C@@H](CCC(=O)O)C(=O)N(C)CC(=O)O[C@@H]1C [Peptide C5] (Decanoyl-[β2hAla(R)]G[dE]YT[dI]DDPG[dD]E[Sar]; ester 5-C) |  | 
10 | 128 | 128 (≈ 85.2 µM) | - | - | CCCCCCCCCC(=O)NC[C@@H](C)C(=O)NCC(=O)N[C@H](CCC(=O)O)C(=O)N[C@@H](Cc1ccc(O)cc1)C(=O)N[C@@H]1C(=O)N[C@H]([C@H](C)CC)C(=O)N[C@@H](CC(=O)O)C(=O)N[C@@H](CC(=O)O)C(=O)N2CCC[C@H]2C(=O)NCC(=O)N[C@@H](CCC(=O)O)C(=O)N[C@@H](CC(=O)O)C(=O)N(C)CC(=O)O[C@@H]1C [Peptide C8] (Decanoyl-[β2hAla(R)]G[dE]YT[dI]DDPGED[Sar]; ester 5-C) |  | 
11 | 128 | 128 (≈ 84.4 µM) | ~ | - | CCCCCCCCCC(=O)NC[C@@H](C)C(=O)NCC(=O)N[C@H](CCC(=O)O)C(=O)N[C@@H](Cc1ccc(O)cc1)C(=O)N[C@@H]1C(=O)N[C@H]([C@H](C)CC)C(=O)N[C@@H](CC(=O)O)C(=O)N[C@@H](CC(=O)O)C(=O)N2CCC[C@H]2C(=O)NCC(=O)N[C@@H](CCC(=O)O)C(=O)N[C@@H](CCC(=O)O)C(=O)N(C)CC(=O)O[C@@H]1C [Peptide C2a] (Decanoyl-[β2hAla(R)]G[dE]YT[dI]DDPGEE[Sar]; ester 5-C) |  | C55-P spot on TLC after incubation with peptide (in words) [3]: no longer visible
12 | 128 |  | ~ | - | CCCCCCCCCC(=O)NC[C@@H](C)C(=O)NCC(=O)N[C@H](CCC(=O)O)C(=O)N[C@@H](Cc1ccc(O)cc1)C(=O)N[C@@H]1C(=O)N[C@H]([C@H](C)CC)C(=O)N[C@@H](CC(=O)O)C(=O)N[C@@H](CC(=O)O)C(=O)N2CCC[C@H]2C(=O)NCC(=O)N[C@H](CCC(=O)O)C(=O)N[C@@H](CCC(=O)O)C(=O)N(C)CC(=O)O[C@@H]1C [Peptide C1b] (Decanoyl-[β2hAla(R)]G[dE]YT[dI]DDPG[dE]E[Sar]; ester 5-C) |  | C55-P spot on TLC after incubation with peptide (in words) [3]: no longer visible
13 | 128 | 128 (≈ 84.4 µM) | - | - | CCCCCCCCCC(=O)NC[C@@H](C)C(=O)NCC(=O)N[C@H](CCC(=O)O)C(=O)N[C@@H](Cc1ccc(O)cc1)C(=O)N[C@@H]1C(=O)N[C@H]([C@H](C)CC)C(=O)N[C@@H](CC(=O)O)C(=O)N[C@@H](CC(=O)O)C(=O)N2CCC[C@H]2C(=O)NCC(=O)N[C@H](CCC(=O)O)C(=O)N[C@@H](CCC(=O)O)C(=O)N(C)CC(=O)O[C@@H]1C [Peptide C1a] (Decanoyl-[β2hAla(R)]G[dE]YT[dI]DDPG[dE]E[Sar]; ester 5-C) |  | 
14 |  |  | - | - | CCCCCCCCCC(=O)N[C@@H](Cc1c[nH]c2ccccc12)C(=O)N[C@H](CC(N)=O)C(=O)N[C@@H](CC(=O)O)C(=O)N[C@@H]1C(=O)NCC(=O)N[C@@H](CCCN)C(=O)N[C@@H](CC(=O)O)C(=O)N[C@H](C)C(=O)N[C@@H](CC(=O)O)C(=O)NCC(=O)N[C@H](CO)C(=O)N[C@@H]([C@H](C)CC(=O)O)C(=O)N[C@@H](CC(=O)c2ccccc2N)C(=O)O[C@@H]1C [Daptomycin, reference compound] |  | MIC − Ca^2+ ([2]; B. subtilis 168, MHB II with 0 mM CaCl2, 5 × 10^5 CFU/mL, 37 °C, 24 h, two-fold dilution series, triplicate): 16 µg/mL (≈ 9.87 µM); decrease in activity in the absence of calcium ([2]; B. subtilis 168, MIC without Ca versus with 15 or 100 mM Ca): 16- to 32 fold; C55-P spot on TLC after incubation with peptide (in words) [3]: a lack of binding
